Results published in ChEMBL document CHEMBL1132137, “Synthesis and antiviral activity of some N-benzenesulphonylbenzimidazoles” (Bioorg Med Chem Lett, 1999).
In brackets after ≈: the same amount, converted by molar mass. Several values for one entry are separate records, joined by “and”; a condition that tells them apart may be missing. Equal entries are not always repeated.

Columns and labels:
[1] = test system: Vaccinia virus; assay: Antiviral activity against the Vaccinia virus (DNA virus) at a concentration of 5 ug/mL was determined as Plaque forming unit/mL(PFU) by plaque assay; type: functional, Orthopoxvirus vaccinia
[2] = test system: Coxsackievirus B5; assay: Inhibitory concentration required to reduce viral plaque formation of Coxsackie B5 virus by 50%; type: functional, organism-based; details: Enterovirus B
[3] = test system: Mumps virus; assay: Antiviral activity against the Mumps virus (RNA virus) at a concentration of 5 ug/mL was determined as total cell infectious dose 50/mL (TCID50) by viral yield assay; type: functional, Mumps orthorubulavirus
[4] = test system: Vero; assay: Cytotoxicity on the vero cell culture infected with Coxsackie B5 virus at a concentration of 10 ug/mL was determined as cell viability by the MTT test; type: functional, Chlorocebus sabaeus
[5] = test system: Vero; assay: (§1) Cytotoxicity on the vero cell culture infected with mL and was determined as reduction in protein content by the Lowry test; type: functional, Chlorocebus sabaeus; design: unit not given here
[6] = test system: Vero; assay: as §1; type: functional, Chlorocebus sabaeus
[7] = test system: Coxsackievirus B5; assay: Antiviral activity against the Coxsackie B5 virus (RNA virus) at a concentration of 5 ug/mL was determined as total cell infectious dose 50/mL (TCID50) by viral yield assay; type: functional
[8] = test system: Human alphaherpesvirus 1; assay: Antiviral activity against the Herpes simplex 1 virus (DNA virus) at a concentration of 5 ug/mL was determined as Plaque forming unit/mL(PFU) by plaque assay; type: functional
[9] = test system: Vero; assay: Cytotoxicity on the vero cell culture infected with Coxsackie B5 virus at a concentration of 3 ug/mL was determined as cell viability by the MTT test; type: functional, Chlorocebus sabaeus
[10] = test system: Vero; assay: Cytotoxicity on the vero cell culture infected with Coxsackie B5 virus at a concentration of 80 ug/mL was determined as cell viability by the MTT test; type: functional, Chlorocebus sabaeus
[11] = test system: Coxsackievirus B5; assay: Antiviral activity against the Coxsackie B5 virus (RNA virus) at a concentration of 80 ug/mL was determined as total cell infectious dose 50/mL (TCID50) by viral yield assay; type: functional
[12] = test system: Vero; assay: as §1; type: functional, Chlorocebus sabaeus; design: unit not given here; remark: listed apart in the source
[13] = test system: Coxsackievirus B5; assay: Antiviral activity against the Coxsackie B5 virus (RNA virus) at a concentration of 3 ug/mL was determined as total cell infectious dose 50/mL (TCID50) by viral yield assay; type: functional
[14] = test system: Vero; assay: Cytotoxicity on the vero cell culture infected with Coxsackie B5 virus at a concentration of 5 ug/mL was determined as cell viability by the MTT test; type: functional, Chlorocebus sabaeus
[15] = test system: Vero; assay: as §1; type: functional, Chlorocebus sabaeus; remark: listed apart in the source
[16] = test system: Coxsackievirus B5; assay: Antiviral activity against the Coxsackie B5 virus (RNA virus) at a concentration of 2 ug/mL was determined as total cell infectious dose 50/mL (TCID50) by viral yield assay; type: functional
[17] = test system: Vero; assay: Cytotoxicity on the vero cell culture infected with Coxsackie B5 virus at a concentration of 2 ug/mL was determined as cell viability by the MTT test; type: functional, Chlorocebus sabaeus
[18] = test system: Vero; assay: Cytotoxicity on the vero cell culture infected with Coxsackie B5 virus at a concentration of 1 ug/mL was determined as cell viability by the MTT test; type: functional, Chlorocebus sabaeus
[19] = test system: Coxsackievirus B5; assay: Antiviral activity against the Coxsackie B5 virus (RNA virus) at a concentration of 4 ug/mL was determined as total cell infectious dose 50/mL (TCID50) by viral yield assay; type: functional
[20] = test system: Vero; assay: Cytotoxicity on the vero cell culture infected with Coxsackie B5 virus at a concentration of 4 ug/mL was determined as cell viability by the MTT test; type: functional, Chlorocebus sabaeus
[21] = test system: Vero; assay: as §1; type: functional, Chlorocebus sabaeus; remark: listed apart in the source
[22] = test system: Human alphaherpesvirus 1; assay: Antiviral activity against the Herpes simplex 1 virus (DNA virus) at a concentration of 2 ug/mL was determined as Plaque forming unit/mL(PFU) by plaque assay; type: functional
[23] = test system: Vaccinia virus; assay: Antiviral activity against the Vaccinia virus (DNA virus) at a concentration of 2 ug/mL was determined as Plaque forming unit/mL(PFU) by plaque assay; type: functional, Orthopoxvirus vaccinia
[24] = test system: Mumps virus; assay: Antiviral activity against the Mumps virus (RNA virus) at a concentration of 2 ug/mL was determined as total cell infectious dose 50/mL (TCID50) by viral yield assay; type: functional, Mumps orthorubulavirus

SMILES | Cytotoxicity [5] | Cytotoxicity [6] | Cell viability [9] | Cytotoxicity [12] | TCID50 [13] | Cell viability [14] | Cell viability [17] | other results
O=[N+]([O-])c1ccccc1S(=O)(=O)n1c(CCc2ccccn2)nc2ccccc21 | 759.5 | 627.8 | – | – | – | – | – | Activity [1]: 750 pfu/ml; IC50 [2]: 5 µg/mL (≈ 12.2 µM); TCID50 [3]: 10000 mL⁻¹; Cell viability [4]: 0.82 and 1.23; TCID50 [7]: 100000 mL⁻¹; Activity [8]: 1800000 pfu/ml
N=C(N)N [GUANIDINE] | – | 825.7 | 1.45 | 839.4 | 1000000 mL⁻¹ | – | – | Cell viability [10]: 1.41; TCID50 [11]: 10000 mL⁻¹
O=[N+]([O-])c1ccc(S(=O)(=O)n2c(Sc3ncccc3[N+](=O)[O-])nc3cc(Cl)c(Cl)cc32)cc1 | 456.1 | – | 1.27 | 595.6 | 1000000 mL⁻¹ | 0.79 | – | –
O=[N+]([O-])c1ccccc1S(=O)(=O)n1c(SCc2ccccn2)nc2ccccc21 | – | 724.1 | – | – | – | – | 1.02 | Cytotoxicity [15]: 774.7; TCID50 [16]: 10000000 mL⁻¹; Cell viability [18]: 1.42
O=[N+]([O-])c1ccccc1S(=O)(=O)n1c(SCc2ccccn2)nc2cc(Cl)c(Cl)cc21 | 495.8 | – | 1.12 | 740.1 | 10000000 mL⁻¹ | 0.83 | – | –
O=[N+]([O-])c1ccc(S(=O)(=O)n2c(SCc3ccccn3)nc3ccccc32)cc1 | – | 744.3 | – | – | – | – | 1.44 | TCID50 [19]: 1000000 mL⁻¹; Cell viability [20]: 1.12; Cytotoxicity [21]: 734.2
O=[N+]([O-])c1ccccc1S(=O)(=O)n1c(CCc2ccccn2)nc2cc(Cl)c(Cl)cc21 | – | 784.8 | – | – | – | – | 1.36 | Activity [22]: 4700000 pfu/ml; IC50 [2]: 8 µg/mL (≈ 16.8 µM); Cytotoxicity [15]: 840.5; TCID50 [16]: 1000000 mL⁻¹; Activity [23]: 120 pfu/ml; TCID50 [24]: 100000 mL⁻¹; Cell viability [18]: 1.49
O=[N+]([O-])c1ccc(S(=O)(=O)n2c(SCc3ccccn3)nc3cc(Cl)c(Cl)cc32)cc1 | 540.8 | – | 1.23 | 663.4 | 1000000 mL⁻¹ | 0.89 | – | –
O=[N+]([O-])c1ccc(S(=O)(=O)n2c(Sc3ncccc3[N+](=O)[O-])nc3ccccc32)cc1 | 508.9 | – | 1.36 | 678.6 | 10000000 mL⁻¹ | 0.8 | – | –
